Measured values: US20080058213A1, “Benzoxazole Compounds” (priority 2004, published 2008)

Experiments:
Assay type in all cases: in vivo
[1] = tested on: barnyard grass (Echinochloa crusgalli); test: Weed control test for paddy field (Test Example 1): barnyard grass; conditions: paddy pots, treated at 1.0 leaf stage of barnyard grass, examined after 3 weeks
Procedure, shortened: (§1)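 Paddy-soil pots flooded to 3 cm, seeded with weeds and transplanted with 2.0-leaf rice. Wettable-powder formulations diluted in water and applied dropwise at a prescribed active-ingredient dose per are at barnyard grass 1.0-leaf stage. After 3 weeks in a 25 °C glasshouse, growth inhibition versus untreated control scored 0–5 (0: <20%; 5: 100%).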

[2] = tested on: Monochoria (Monochoria vaginalis); test: Weed control test for paddy field (Test Example 1): Monochoria; conditions: paddy pots, treated at 1.0 leaf stage of barnyard grass, examined after 3 weeks
Procedure, shortened: as §1

[3] = tested on: Japanese bulrush (Scirpus juncoides); test: Weed control test for paddy field (Test Example 1): Japanese bulrush; conditions: paddy pots, treated at 1.0 leaf stage of barnyard grass, examined after 3 weeks
Procedure, shortened: as §1

[4] = tested on: flat sedge (Cyperus serotinus); test: Weed control test for paddy field (Test Example 1): flat sedge; conditions: paddy pots, treated at 1.0 leaf stage of barnyard grass, examined after 3 weeks
Procedure, shortened: as §1

rice plant = test: Weed control test for paddy field (Test Example 1): phytotoxicity to rice plant; conditions: paddy pots, treated at 1.0 leaf stage of barnyard grass, examined after 3 weeks
Procedure, shortened: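 Rice transplanted at 2.0 leaf stage into flooded paddy soil pots (3 cm water) sown with weeds. Wettable powder applied dropwise at a prescribed active ingredient dose per are at 1.0 leaf stage of barnyard grass. Kept 3 weeks in glasshouse at 25 °C. Phytotoxicity scored 0 (normal) to 5 (killed) against untreated control.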

[5] = tested on: southern crabgrass (Digitaria ciliaris); test: Soil treatment test for upland field (Test Example 2): southern crabgrass; conditions: soil treatment before germination, examined after 3 weeks
Procedure, shortened: (§2)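 Pre-emergence soil spray: wettable powder diluted in water, applied at 15 L/are to seeded upland soil in 1/3,000 are pots. Glasshouse, avg 25° C, 3 wk. Score 0–5 by % growth inhibition vs untreated (0: <20%; 5: 100%).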

[6] = tested on: common lambsquaters (Chenopodium album); test: Soil treatment test for upland field (Test Example 2): common lambsquaters; conditions: soil treatment before germination, examined after 3 weeks
Procedure, shortened: as §2

[7] = tested on: slender amaranth (Amaranthus viridis); test: Soil treatment test for upland field (Test Example 2): slender amaranth; conditions: soil treatment before germination, examined after 3 weeks
Procedure, shortened: as §2

[8] = tested on: common purslane (Portulaca oleracea); test: Soil treatment test for upland field (Test Example 2): common purslane; conditions: soil treatment before germination, examined after 3 weeks
Procedure, shortened: as §2

[9] = tested on: velvetleaf (Abutilon theophrasti); test: Soil treatment test for upland field (Test Example 2): velvetleaf; conditions: soil treatment before germination, examined after 3 weeks
Procedure, shortened: as §2

wheat [10] = test: Soil treatment test for upland field (Test Example 2): phytotoxicity to wheat; conditions: soil treatment before germination, examined after 3 weeks; also: key: 0: normal growth; 1: little damaged; 2: low damaged; 3: medium damaged; 4: serious damaged; 5: complete killed
corn [11] = test: Soil treatment test for upland field (Test Example 2): phytotoxicity to corn; conditions: soil treatment before germination, examined after 3 weeks; also: key: 0: normal growth; 1: little damaged; 2: low damaged; 3: medium damaged; 4: serious damaged; 5: complete killed
soybean [12] = test: Soil treatment test for upland field (Test Example 2): phytotoxicity to soybean; conditions: soil treatment before germination, examined after 3 weeks; also: key: 0: normal growth; 1: little damaged; 2: low damaged; 3: medium damaged; 4: serious damaged; 5: complete killed
southern crabgrass = test: Foliage treatment test for upland field (Test Example 3): southern crabgrass; conditions: foliage treatment at 1.0-2.0 leaf stage of southern crabgrass, examined after 3 weeks
Procedure, shortened: (§3)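 Wettable powders diluted to the prescribed dose and sprayed at 15 L/are at the 1.0-2.0 leaf stage of southern crabgrass on glasshouse-grown plants (25° C average). Effect graded 0-5 after 3 weeks from growth inhibition versus untreated control (0: <20% to 5: 100%).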

common lambsquaters = test: Foliage treatment test for upland field (Test Example 3): common lambsquaters; conditions: foliage treatment at 1.0-2.0 leaf stage of southern crabgrass, examined after 3 weeks
Procedure, shortened: as §3

slender amaranth = test: Foliage treatment test for upland field (Test Example 3): slender amaranth; conditions: foliage treatment at 1.0-2.0 leaf stage of southern crabgrass, examined after 3 weeks
Procedure, shortened: as §3

common purslane = test: Foliage treatment test for upland field (Test Example 3): common purslane; conditions: foliage treatment at 1.0-2.0 leaf stage of southern crabgrass, examined after 3 weeks
Procedure, shortened: as §3

velvetleaf = test: Foliage treatment test for upland field (Test Example 3): velvetleaf; conditions: foliage treatment at 1.0-2.0 leaf stage of southern crabgrass, examined after 3 weeks
Procedure, shortened: as §3

wheat [13] = test: Foliage treatment test for upland field (Test Example 3): phytotoxicity to wheat; conditions: foliage treatment at 1.0-2.0 leaf stage of southern crabgrass, examined after 3 weeks; also: key: 0: normal growth; 1: little damaged; 2: low damaged; 3: medium damaged; 4: serious damaged; 5: complete killed
Procedure, shortened: (§4)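 Crops sown in compost-mixed soil pots, kept in a glasshouse at 25° C. average. Effect scored after 3 weeks versus untreated control on a 0–5 scale (0 normal growth, 5 complete kill).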

corn [14] = test: Foliage treatment test for upland field (Test Example 3): phytotoxicity to corn; conditions: foliage treatment at 1.0-2.0 leaf stage of southern crabgrass, examined after 3 weeks
Procedure, shortened: as §4

soybean [15] = test: Foliage treatment test for upland field (Test Example 3): phytotoxicity to soybean; conditions: foliage treatment at 1.0-2.0 leaf stage of southern crabgrass, examined after 3 weeks
Procedure, shortened: as §4

Q: What does the source list for `COCC(=Cc1cccc(C(F)(F)F)c1)c1nc2cc(Br)ccc2o1` [Compound 39]?
A: Herbicidal Effect Barnyard grass ([1]; dose 2.5 g ai/a): 5 (100%); Herbicidal Effect Barnyard grass ([1]; dose 5 g ai/a): 5 (100%); Herbicidal Effect Monochoria vaginalis ([2]; dose 2.5 g ai/a): 5 (100%); Herbicidal Effect Monochoria vaginalis ([2]; dose 5 g ai/a): 5 (100%); Herbicidal Effect Japanese bulrush ([3]; dose 2.5 g ai/a): 3 (60%-less than 80%); Herbicidal Effect Japanese bulrush ([3]; dose 5 g ai/a): 4 (80%-less than 100%); Herbicidal Effect Flat sedge ([4]; dose 2.5 g ai/a): 2 (40%-less than 60%); Herbicidal Effect Flat sedge ([4]; dose 5 g ai/a): 3 (60%-less than 80%); Phytotoxicity Rice plant (rice plant; dose 2.5 g ai/a): 0; Phytotoxicity Rice plant (rice plant; dose 5 g ai/a): 0; Herbicidal Effect southern crabgrass ([5]; dose 2.5 g ai/a): 4 (80%-less than 100%); Herbicidal Effect southern crabgrass ([5]; dose 5 g ai/a): 5 (100%); Herbicidal Effect common lambsquaters ([6]; dose 2.5 g ai/a): 5 (100%); Herbicidal Effect common lambsquaters ([6]; dose 5 g ai/a): 5 (100%); Herbicidal Effect slender amaranth ([7]; dose 2.5 g ai/a): 5 (100%); Herbicidal Effect slender amaranth ([7]; dose 5 g ai/a): 5 (100%); Herbicidal Effect common purslane ([8]; dose 2.5 g ai/a): 5 (100%); Herbicidal Effect common purslane ([8]; dose 5 g ai/a): 5 (100%); Herbicidal Effect velvetleaf ([9]; dose 2.5 g ai/a): 4 (80%-less than 100%); Herbicidal Effect velvetleaf ([9]; dose 5 g ai/a): 5 (100%); Phytotoxicity wheat (wheat [10]; dose 2.5 g ai/a): 0; Phytotoxicity wheat (wheat [10]; dose 5 g ai/a): 0; Phytotoxicity corn (corn [11]; dose 2.5 g ai/a): 0; Phytotoxicity corn (corn [11]; dose 5 g ai/a): 1; Phytotoxicity soybean (soybean [12]; dose 2.5 g ai/a): 0; Phytotoxicity soybean (soybean [12]; dose 5 g ai/a): 1; Herbicidal Effect southern crabgrass (southern crabgrass; dose 2.5 g ai/a): 4 (80%-less than 100%); Herbicidal Effect southern crabgrass (southern crabgrass; dose 5 g ai/a): 5 (100%); Herbicidal Effect Common lambsquatters (common lambsquaters; dose 2.5 g ai/a): 5 (100%); Herbicidal Effect Common lambsquatters (common lambsquaters; dose 5 g ai/a): 5 (100%); Herbicidal Effect slender amaranth (slender amaranth; dose 2.5 g ai/a): 5 (100%); Herbicidal Effect slender amaranth (slender amaranth; dose 5 g ai/a): 5 (100%); Herbicidal Effect common purslane (common purslane; dose 2.5 g ai/a): 5 (100%); Herbicidal Effect common purslane (common purslane; dose 5 g ai/a): 5 (100%); Herbicidal Effect velvetleaf (velvetleaf; dose 2.5 g ai/a): 4 (80%-less than 100%); Herbicidal Effect velvetleaf (velvetleaf; dose 5 g ai/a): 5 (100%); Phytotoxicity wheat (wheat [13]; dose 2.5 g ai/a): 0; Phytotoxicity wheat (wheat [13]; dose 5 g ai/a): 1; Phytotoxicity corn (corn [14]; dose 2.5 g ai/a): 0; Phytotoxicity corn (corn [14]; dose 5 g ai/a): 1; Phytotoxicity soybean (soybean [15]; dose 2.5 g ai/a): 1; Phytotoxicity soybean (soybean [15]; dose 5 g ai/a): 1
